One assay addresses Enteropeptidase (Homo sapiens, UniProt P98073). The assay can be described thus: Enteropeptidase. The text has this: Table printed on a drawing sheet, Fig. 5
Head of the field: Enteropeptidase
The patent's description of the figure: FIG. 5 is a Table showing the IC 50 (in nM) of enteropeptidase, various serine proteases and other enzyme families, in the presence of compounds OBE 1999, OBE 2000, OBE 2001 or OBE 2002.
First copying reader's note: Each column is one compound; each row gives its IC50 against the named enzyme.
Where the first naming reader finds the target: head: Enteropeptidase

Assay [1] in a line: Effect on triglyceride absorption after oral gavage with clinoleic 20% + cholesterol. The note with it: for triglycerides, area under the curve: 0-360 min. The assay is classed as in vivo, mice. As for the experimental part: 2. Effect of OBE2001 on Triglyceride Absorption The scope of this second in vivo experiment was to analyse the effects of the OBE2001 compound on triglycerides absorption. To that purpose, mice were injected with OBE2001, before and/or after gavage with a solution enriched with cholesterol and free fatty acids (clinoleic at 20%). In this study, 7 week old Swiss CD1 male mice were weighed and randomized for body weight; 3 groups of 5 mice were then constituted of: • Group 1 (solvant): control group. Vehicle (H2O+2% DMSO) at t-5 min+solution A (clinoleic 20%+cholesterol) at t0. • Group 2 (OBE 25+25): OBE2001 25 mg/kg (before and after gavage). OBE2001 25 mg/kg (solution B) at t-5 min+OBE2001 25 mg/kg in solution A (solution C) at t0. • Group 3 (OBE 25): OBE2001 25 mg/kg […]. Vehicle (H2O+2% DMSO) at t-5 min+OBE2001 25 mg/kg in solution A (solution C) at t0. 30 minutes before treatment (with solution A, B or C) blood was collected by retro orbital puncture after a slight anaesthesia (Isoflurane), to determine basal (t0) triglycerides levels. All solutions were then administered by oral gavage at t-5 (vehicle or solution B) or t0 (solution A or C). After administration of the solution A or C (containing fatty acids+cholesterol), blood was collected again by retro orbital puncture after a slight anaesthesia (Isoflurane) at time 60, 120, 180, 300 and 360 minutes for measurement of triglycerides levels. At time 360 minutes, mice were sacrificed.

Enteropeptidase, sequence (P98073 2-1019): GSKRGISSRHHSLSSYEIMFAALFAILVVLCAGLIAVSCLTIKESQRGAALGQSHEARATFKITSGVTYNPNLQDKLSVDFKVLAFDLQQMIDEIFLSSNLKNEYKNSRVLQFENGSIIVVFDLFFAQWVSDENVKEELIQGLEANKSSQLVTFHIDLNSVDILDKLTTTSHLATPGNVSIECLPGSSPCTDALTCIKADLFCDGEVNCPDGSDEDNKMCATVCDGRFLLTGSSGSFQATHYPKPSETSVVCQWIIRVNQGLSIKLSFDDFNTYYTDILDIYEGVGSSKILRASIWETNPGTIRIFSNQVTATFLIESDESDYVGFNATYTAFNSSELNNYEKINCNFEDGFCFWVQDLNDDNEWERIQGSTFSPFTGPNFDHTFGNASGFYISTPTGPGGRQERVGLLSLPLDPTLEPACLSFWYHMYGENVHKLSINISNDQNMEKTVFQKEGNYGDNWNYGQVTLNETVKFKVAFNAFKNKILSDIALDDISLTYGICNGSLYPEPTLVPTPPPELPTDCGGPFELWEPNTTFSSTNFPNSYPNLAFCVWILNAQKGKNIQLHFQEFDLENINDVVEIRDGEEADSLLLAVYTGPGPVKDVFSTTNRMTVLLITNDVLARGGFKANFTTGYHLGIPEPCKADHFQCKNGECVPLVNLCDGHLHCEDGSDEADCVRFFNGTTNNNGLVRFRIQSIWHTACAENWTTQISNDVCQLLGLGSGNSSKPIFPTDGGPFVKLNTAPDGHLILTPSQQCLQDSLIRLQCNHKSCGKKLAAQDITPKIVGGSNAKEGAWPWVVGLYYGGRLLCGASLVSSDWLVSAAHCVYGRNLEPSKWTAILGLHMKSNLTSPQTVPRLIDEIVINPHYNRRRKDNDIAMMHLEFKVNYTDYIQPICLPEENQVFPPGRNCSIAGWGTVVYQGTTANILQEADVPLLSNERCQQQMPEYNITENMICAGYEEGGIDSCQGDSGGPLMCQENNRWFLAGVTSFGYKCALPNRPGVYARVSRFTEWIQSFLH

As usually defined, the IC50 is the concentration at which inhibition is half-maximal. Low values mean greater potency, high ones weaker potency. Compound `CC(=O)N[C@@H](C)C(=O)N[C@@H](Cc1ccccc1)C(=O)N[C@@H](CCCNC(=N)N)B1OC2C[C@@H]3C[C@@H](C3(C)C)[C@]2(C)O1` (stereo partly shown) [OBE2001] showed an IC50 at Enteropeptidase of 7.3 nM. Besides, the “triglycerides, area under the curve” value in assay [1] (Group 2, 25+25 mg/kg) worked out at 48559; in assay [1] (Group 3, 25 mg/kg), 56273. Moreover, in assay [1] (25 mg/kg, groups 2 and 3), the “triglyceride absorption compared to the control group” value is “decrease in triglyceride absorption”. For the same compound, the “plasma triglycerides, % of basal value” in assay [1] (60 min, Group 2, 25 mg/kg at t-5 min + 25 mg/kg at t0, oral gavage) is recorded as 243.39 % of basal value; in assay [1] (60 min, Group 3, single 25 mg/kg in solution A at t0, oral gavage) it was 293.17 % of basal value; in assay [1] (120 min, Group 2, 25 mg/kg at t-5 min + 25 mg/kg at t0, oral gavage), 202.34 % of basal value; in assay [1] (120 min, Group 3, single 25 mg/kg in solution A at t0, oral gavage) it was 269.24 % of basal value; in assay [1] (180 min, Group 2, 25 mg/kg at t-5 min + 25 mg/kg at t0, oral gavage) it was 127.81 % of basal value; in assay [1] (180 min, Group 3, single 25 mg/kg in solution A at t0, oral gavage), 126.45 % of basal value. Also, the “plasma triglycerides, % of basal value” is given as 62.35 % of basal value in assay [1] (300 min, Group 2, 25 mg/kg at t-5 min + 25 mg/kg at t0, oral gavage); 70.22 % of basal value in assay [1] (300 min, Group 3, single 25 mg/kg in solution A at t0, oral gavage); 56.71 % of basal value in assay [1] (360 min, Group 2, 25 mg/kg at t-5 min + 25 mg/kg at t0, oral gavage); 60.92 % of basal value in assay [1] (360 min, Group 3, single 25 mg/kg in solution A at t0, oral gavage). The “% of decrease of triglyceride area under the curve versus group 1” value in assay [1] (Group 2/group 1, 25+25 mg/kg, 25 mg/kg) is given as 26%; in assay [1] (Group 3/group 1, 25 mg/kg), 14%.

For the origin of these results see patent US9481709B2, “Boropeptide inhibitors of enteropeptidase and their uses in treatment of obesity, overweight and/or diseases associated with an abnormal fat metabolism” (OBE THERAPY BIOTECHNOLOGY, priority 2007, dated 2016).
